Measurements from patent US20240262727A1, “METHOD FOR IMPROVING BIOLOGICAL NITROGEN REMOVAL EFFECT OF LOW-TEMPERATURE SEWAGE” (Sichuan University, priority 2023, published 2024).

Tested on: activated sludge
Test: Activated sludge SBR reactor, biological nitrogen removal with added AHLs signal molecule
Conditions: remaining steps as Example 1 (10° C.)

`CCCCCC(=O)N[C@H]1CCOC1=O` [C6-HSL, N-hexanoyl-L-homoserine lactone] showed an ammonia-nitrogen removal efficiency (10 μg/L after addition) of 82.34% and an ammonia-nitrogen removal efficiency (100 μg/L after addition) of 84.29%.
